The results in this text go back to US20250204535A1, “Rodenticide” (priority 2022, published 2025).

Where no end group is shown, it is not given here.

Assay type in all cases: cell-based
Data set [1] relates to Embryonic chick cardiomyocytes. Description: Screening synthetic peptides for embryonic chick cardiomyocyte toxicity (resazurin, 24 h). As to conditions: 10 μg/ml, toxicity control. As to the method:
Hearts were collected from euthanised 12-13 day old embryonic chicks and transferred into filter sterilized ice-cold hanks balanced salt solution (HBSS) containing 2% Pen-strep. Hearts were washed in the HBSS to remove blood, any non-heart tissue removed and then cut into 1-3 mm pieces and placed in 40 ml filter sterilized, ice cold 0.05% trypsin/HBSS. The heart pieces in trypsin were place in a large ice bucket and incubated for 1 h on a rocker with gentle agitation to allow the tissue to digest.
All trypsin was aspirated from the tissue and discarded, and the tissue transferred evenly into 2 ml Eppendorf tubes. The tissue was then digested further using a 1 mg/ml Collagenase II/0.1% Trypsin/HBSS (filter sterilized) solution. For each digestion, 2 ml of enzyme buffer was added to all Eppendorf tubes and the tubes incubated in a 37° C. heating block for 3 mins with 400 rpm agitation. The supernatant from the first two digestions was discarded. After each of the following digestion steps, the tissue was gently triturated using a Pasteur pipette to release cells. […]
(§1) Rat neonatal cardiomyocytes, Embryonic chick cardiomyocytes, human IPSC-derived cardiomyocytes and rat cardiac fibroblast were cultured. […] After 24 h Resazurin dye was added to each well at a final concentration of 160 μM and the change in fluorescence of the dye monitored and recorded over a 24 h time period.

In data set [2] the test system is neonatal rat cardiac fibroblast cells. Put plainly: Screening purified venom fractions for rat cardiac fibroblast toxicity (resazurin). Particulars: neonatal rat cardiac fibroblasts. The method, then: Hearts were collected from euthanised 1-2-day old neonatal rat pups and transferred into filter sterilised ice-cold Hanks balanced salt solution (HBSS) containing 2% Pen-strep. Hearts were washed in the HBSS, any non-heart tissue removed and then cut into 1-3 mm pieces and placed in 40 ml filter sterilised, ice cold 0.1% trypsin/HBSS. The heart pieces in trypsin were place in a large ice bucket and incubated overnight at 4° C. on a rocker with gentle agitation to allow the tissue to digest.
The following day, all trypsin was aspirated from the tissue and the tissue transferred evenly into 2 ml Eppendorf tubes. The tissue was then digested further using a 37° C. 1 mg/ml collagenase/HBSS (filter sterilised) solution. For each collagenase digestion, 2 ml of enzyme buffer was added to all Eppendorf tubes and the tubes incubated in a 37° C. heating block for 2 mins with 400 rpm agitation. The supernatant from the first two digestions was discarded. After each of the following digestion steps, the tissue was gently triturated using a pipette to release cells. Once trituration was complete the supernatant was retained, added to a tube containing 10 ml cell culture media and stored on ice.
All cell containing supernatants were filtered through a 250 μm cell strainer to remove any potentially undigested tissue and myocytes separated from cardiac fibroblast by spinning the supernatant at 1800 g for 45 mins through a Percoll gradient. […]
Neonatal rat cardiomyocytes and cardiac fibroblasts were treated with purified venom fractions suspected of being cardiotoxins at doses of 12.5, 7.5, 6 μg/ml, with rat cardiomyocytes being treated at additional concentrations of 3.5, 2.5, 1 and 0.5 μg/ml for 2 hs in a humidified incubator at 37° C., 5% CO2. […] The change in fluorescence of the resazurin dye was monitored over a 5 h timeframe using a BMG Fluostar plate reader. Percent inhibition of both cell types in response to each fraction at each dose were calculated and plotted graphically.

Data set [3] has as its system Neonatal rat cardiomyocytes. Put plainly: Screening purified venom fractions for alterations to cardiomyocyte beat rates. As to conditions: for Highest Achieved Fold Increases in Beat Rate: 1 h; for fold increases to beat rate: dose of 6 μg/ml. As to the method:
Neonatal rat cardiomyocytes were isolated as via standard protocol and seeded at a density of 100,000 cells/96 well. Once myocyte cultures were beating spontaneously in uniform sheets, they were videoed well-by-well using a microscope camera to determine pre-dose beat rates/min. […] Cells were incubated in each fraction in a humidified incubator at 37° C., 5% CO2 for 1 h. After 1 h videos of the cells were re-recorded to obtain the post-dosing beat rate/minute. Fold changes in beat frequency were calculated for each dosed well pair.

The subject of data set [4] is rat neonatal cardiomyocyte cells. Particulars: 37, 60, 80, 100° C.; 6 μg/ml; rat cardiomyocytes; FIG. 4. As to the method: Thermal stability of the six lead fractions was investigated. Aliquots of each fraction were heated in a heat block to 37° C. (unheated), 60° C., 80° C. and 100° C. before being used to treat rat neonatal cardiomyocyte cells at a dose of 6 μg/ml. Cardiomyocyte toxicity was assessed after 24 hrs of dosing at each temperature against a similar aliquot of each fraction that had been unheated before dosing. After 24 h, 160 μM Resazurin dye was added to all cells and the change in cardiomyocyte cell viability/metabolism monitored every hour up to 5 h post dye addition. An additional measurement was recorded 24 hs after the dye had been added.

Data set [5] concerns Human IPSC-derived cardiomyocytes. Put plainly: Screening synthetic peptides for human IPSC-derived cardiomyocyte toxicity (resazurin, 24 h). Particulars: 10 μg/ml, toxicity control. The method, then: (§2) Human IPSC-derived cardiomyocytes were purchased from Axol Biosciences and cultured as via their standard methodology. Briefly, cells were recovered from liquid nitrogen storage when required and the cells transferred dropwise into 10 ml of pre-warmed (37° C.) plating media (cardiomyocyte maintenance media+10% FCS+10 μM ROCK inhibitor). Cells were centrifuged at 200×g for 5 mins at room temperature. The supernatant was aspirated from the cell pellet and the cell pellet gently resuspended in 1 ml plating media. Cells were counted using a haemocytometer and trypan blue staining. Cells were plated at a seeding density of 10-20,000 cells/well in fibronectin pre-coated 384 well plates. Cells were incubated at 37° C., 5% CO2 in a humidified incubator overnight before the plating media was removed the following day and replace with fresh maintenance media (No FCS, no ROCK inhibitor). Partial media changes were performed every 2-days until cells formed a single continuous sheet of spontaneously beating cardiomyocytes (7-10 day in culture).
as §1

The test system is the same in data set [6]. Description: Six lead fractions: toxicity to human IPSC-derived cardiomyocytes (resazurin). As to conditions: 3.5 μg/ml. As to the method: as §2
Once beating spontaneously, cells were treated with the six lead fractions diluted in maintenance media to final working concentrations of 7.5, 6, 3.5, 2.5 and 1 μg/ml. 30 μl of each fraction dilution was added to triplicate wells of cells and incubated for 2 h at 37° C., 5% CO2 in a humidified incubator. After 2 h, resazurin dye at a final working concentration of 160 μM were added to all wells and the change in fluorescence of the plate monitored over a 5 h timeframe using a BMG Labtech Fluostar plate reader. Percent toxicity was calculated from triplicate wells at each dose and plotted graphically.
Human IPSC derived cardiomyocytes were dosed in triplicate with a serial dilution of each of the six venom fractions (7.5, 6, 3.5, 2.5 and 1 μg/ml) for 2 hs at 37° C., 5% CO2 before resazurin dye was added and the change in colour and fluorescence monitored for the following 5 hrs. Percentage toxicity was calculated for each fraction at all doses and plotted graphically (FIG. 3).

For data set [7] the test system is unchanged. Description: Screening synthetic peptides for alterations to human IPSC-derived cardiomyocyte beat rates. Particulars: 2 h; dose not stated in the sentence (no increase at 0.1, 1 and 10 μg/ml). The method, then:
The baseline beat rate of neonatal rat and human IPSC-derived cardiomyocytes to be treated with the three synthetic fractions were determined by video microscopy of each well in triplicate using a microscope camera. Average beats/min were calculated from the triplicate readings of three separate wells (n=9). Aliquots of each peptide were taken to treat neonatal rat cardiomyocyte cells at doses of 100, 10, 1 and 0.1 μg/ml. Cells were returned to a humidified incubator at 37° C., 5% CO2 for 2 h. After 2 h the beat rate of the treated cardiomyocyte cells was reassessed using the same method used to obtain the pre-dosing beat data. This process was repeated 24 h after the addition of the synthetic peptides.

With “N.nig_I19_R4 (LKCNKLIPIAYKTCPEGKNLCYKMMLASKKMVPVKRGCIDVCPKDSALVKYVCCSTDRCN)”, in data set [1], the “toxicity against embryonic chick cardiomyocytes” value is “≈ 90%”. Moreover, the “doses showing cardiac fibroblast toxicity” value in data set [2] amounted to 12.5 µg/mL. Besides, the “Highest Achieved Fold Increases in Beat Rate” value in data set [3] (Dose 1 μg/ml) was 6.25 fold. The “fold increases to beat rate” value in data set [3] is “greater than 5.5 fold”. Moreover, in data set [4], the “thermal stability (change in cytotoxic activity after heating)” value was “no significant changes in the activity”. For the same substance, the “toxicity against human IPSC-derived cardiomyocytes” value in data set [5] is on record as “≈ 90%”.
“N.nka_I18_R4 (LKCNKLIPLAYKTCPAGKDLCYKMYMVSDKTVPVKRGCIDVCPKNSLLVKYECCNTDRCN)”: in data set [1], the “toxicity against embryonic chick cardiomyocytes” value is reported as “≈ 90%”. In data set [6], the “toxicity in human IPSC-derived cells compared to rodent cardiomyocytes” value was “reduction in toxicity”. The “Highest Achieved Fold Increases in Beat Rate” value in data set [3] (Dose 6 μg/ml) is listed as 7.00 fold. The “fold increases to beat rate” value in data set [3] is “greater than 7 fold”. Besides, the “thermal stability (change in cytotoxic activity after heating)” value in data set [4] is “no significant changes in the activity”. For the same substance, in data set [5], the “toxicity against human IPSC-derived cardiomyocytes” value is reported as “≈ 90%”.
LKCNKLIPLAYKT [Synthetic peptide 2]: the “increase to the beat rate of human cardiomyocytes over pre-dosing beat rate” value in data set [7] came to 1.5 fold.
